From the NIST ThermoML archive (doi:10.1021/je3009649)

Settings: Liquid, Ebulliometric method (Recirculating still)

CCCCN [1-butanamine]
Settings | vapor or sublimation pressure [kPa]
308.3 K | 19.99
314.7 K | 26.66
319.9 K | 33.33
328.2 K | 46.66
334.8 K | 59.99
337.9 K | 66.66
345.1 K | 86.66
350 K | 101.33

CCNCC [diethylamine]
Settings | vapor or sublimation pressure [kPa]
294.7 K | 26.66
299.5 K | 33.33
307.6 K | 46.66
316.7 K | 66.66
323.9 K | 86.66
328.3 K | 101.33

C1CCNC1 [pyrrolidine]
Settings | vapor or sublimation pressure [kPa]
316.9 K | 19.99
323.4 K | 26.66
329 K | 33.33
337.6 K | 46.66
347.5 K | 66.66
354.9 K | 86.66
359.4 K | 101.33
